Read-outs that look alike come from different tables or passages of the source.
What was measured:
[1] = system: patients with type 2 diabetes mellitus, chronic kidney disease, and risks for cardiovascular disease; format: in vivo
Method: A multicenter, double-blind clinical trial (SCORED) was conducted in which patients with type 2 diabetes mellitus (glycated hemoglobin level, ≥7%), chronic kidney disease (estimated glomerular filtration rate, 25 to 60 ml per minute per 1.73 m^2 of body-surface area), and risks for cardiovascular disease were randomly assigned in a 1:1 ratio to receive sotagliflozin or placebo. The primary end point was changed during the trial to the composite of the total number of deaths from cardiovascular causes, hospitalizations for heart failure, and urgent visits for heart failure.
Randomization was stratified according to criteria for heart failure (ejection fraction of ≤40% documented within the past year or hospitalization for heart failure during the previous 2 years) and geographic region (North America, Latin America, western Europe, eastern Europe, or rest of the world).
Persons 18 years of age or older with type 2 diabetes mellitus with a glycated hemoglobin level of 7% or higher, chronic kidney disease (eGFR, 25 to 60 ml per minute per 1.73 m^2 of body-surface area), and additional cardiovascular risk factors were enrolled. The risk factors consisted of at least one major cardiovascular risk factor in those 18 years of age or older or at least two minor cardiovascular risk factors in those 55 years of age or older. One exclusion criterion was any plan to start an SGLT2 inhibitor during the trial. Written informed consent was obtained from all the patients.
The original coprimary end points, assessed in time-to-event analyses, were the first occurrence of a major adverse cardiovascular event (MACE, defined as death from cardiovascular causes, non-fatal myocardial infarction, or nonfatal stroke) and the first occurrence of death from cardiovascular causes or hospitalization for heart failure (HHF). The primary end point was the total number of deaths from cardiovascular causes, hospitalizations for heart failure, and urgent visits for heart failure (UVHF).
The secondary end points were the total number of hospitalizations for heart failure and urgent visits for heart failure; deaths from cardiovascular causes; the total number of deaths from cardiovascular causes, hospitalizations for heart failure, nonfatal myocardial infarctions, and nonfatal strokes; the total number of deaths from cardiovascular causes, hospitalizations for heart failure, urgent visits for heart failure, and events of heart failure during hospitalization; the first occurrence of the composite of a sustained decrease of at least 50% in the eGFR from baseline for at least 30 days, long-term dialysis, renal trans-plantation, or a sustained eGFR of less than 15 ml per minute per 1.73 m^2 for at least 30 days; deaths from any cause; and the total number of deaths from cardiovascular causes, nonfatal myocardial infarctions, and nonfatal strokes. The use of total events allowed for a single patient to have more than one event contributing to the analysis. Subgroup analyses were prespecified.
All efficacy analyses followed the intention-to-treat principle. To allow for analyses of total events, competing-risk marginal models for recurrent events that were stratified according to heart-failure criteria and geographic region, with deaths not included in a given end point treated as competing terminal events, were applied to generate hazard ratios with Wald 95% confidence intervals and P values. Proportionality was confirmed by interaction terms between trial-group assignment and the logarithm of time. Event rates were summarized by the number of events per 100 patient-years of follow-up, and accrual of events over time was summarized by cumulative incidence functions.
Total events of myocardial infarction and total events of stroke were evaluated post hoc. Testing for differences between the two groups in adverse events was performed post hoc; P values were obtained from Pearson chi-square tests. […]

[2] = system: patients with reported LVH and no reported hypertension; format: in vivo
[3] = SCORED overall, sotagliflozin vs placebo
[4] = SCORED overall, sotagliflozin vs placebo, listed as sotagliflozin
[5] = reported LVH and no reported hypertension, N = 217
[6] = reported LVH and no reported hypertension, sotagliflozin vs placebo

With `CCOc1ccc(Cc2cc([C@@H]3O[C@H](SC)[C@@H](O)[C@H](O)[C@H]3O)ccc2Cl)cc1` [Sotagliflozin, (2S,3R,4R,5S,6R)-2-(4-chloro-3-(4-ethoxybenzyl)phenyl)-6-(methylthio) tetrahydro-2H-pyran-3,4,5-triol] the total hospitalizations ([1]; SCORED overall) was 1923, the “total patient-years spanned by hospitalizations” value ([1]; SCORED overall) was 104 patient-years and the “Deaths from any cause, event rate” value ([1]; SCORED overall, N = 5292) was 3.5 Events/100 patient-years. For the same compound, the “Deaths from any cause, number of events” value ([1]; SCORED overall, N = 5292) was 246 number of events, the “Deaths from cardiovascular causes, event rate” value ([1]; SCORED overall, N = 5292) was 2.2 Events/100 patient-years and the “Deaths from cardiovascular causes, number of events” value ([1]; SCORED overall, N = 5292) was 155 number of events. The “First occurrence of a sustained decrease of ≥50% in the eGFR from baseline for ≥30 days, long-term dialysis, renal transplantation, or sustained eGFR of <15 ml/min/1.73 m^2 for ≥30 days, event rate” value ([1]; SCORED overall, N = 5292) was 0.5 Events/100 patient-years, the “First occurrence of the composite renal end point (sustained ≥50% eGFR decrease, long-term dialysis, renal transplantation, or sustained eGFR <15), number of events” value ([1]; SCORED overall, N = 5292) was 37 number of events and the “Primary end point: total no. of deaths from cardiovascular causes, hospitalizations for HF, and urgent visits for HF, event rate” value ([1]; SCORED overall, N = 5292) was 5.6 Events/100 patient-years. For the same compound, the “Primary end point: total no. of deaths from cardiovascular causes, hospitalizations for HF, and urgent visits for HF, number of events” value ([1]; SCORED overall, N = 5292) was 400 number of events, the “Total no. of deaths from cardiovascular causes, hospitalizations for HF, nonfatal myocardial infarctions, and nonfatal strokes, event rate” value ([1]; SCORED overall, N = 5292) was 7.6 Events/100 patient-years and the “Total no. of deaths from cardiovascular causes, hospitalizations for HF, nonfatal myocardial infarctions, and nonfatal strokes, number of events” value ([1]; SCORED overall, N = 5292) was 541 number of events. For the same compound, the “Total no. of deaths from cardiovascular causes, hospitalizations for HF, urgent visits for HF, and events of HF during hospitalization, event rate” value ([1]; SCORED overall, N = 5292) was 6.4 Events/100 patient-years, the “Total no. of deaths from cardiovascular causes, hospitalizations for HF, urgent visits for HF, and events of HF during hospitalization, number of events” value ([1]; SCORED overall, N = 5292) was 453 number of events and the “Total no. of deaths from cardiovascular causes, nonfatal myocardial infarctions, and nonfatal strokes, event rate” value ([1]; SCORED overall, N = 5292) was 4.8 Events/100 patient-years. The “Total no. of deaths from cardiovascular causes, nonfatal myocardial infarctions, and nonfatal strokes, number of events” value ([1]; SCORED overall, N = 5292) was 343 number of events, the “Total no. of hospitalizations for HF and urgent visits for HF, event rate” value ([1]; SCORED overall, N = 5292) was 3.5 Events/100 patient-years and the “Total no. of hospitalizations for HF and urgent visits for HF, number of events” value ([1]; SCORED overall, N = 5292) was 245 number of events. The “composite renal end point, compared with placebo” value ([1]; SCORED overall, in words) was “did not differ significantly”, the “risk of the composite of deaths from cardiovascular causes, hospitalizations for heart failure, and urgent visits for heart failure, compared with placebo” value ([1]; SCORED overall, in words) was “lower risk” and the “Deaths from any cause: Hazard Ratio (95% CI)” value [1, 3] was 0.99 (0.83-1.18). For the same compound, the “Deaths from cardiovascular causes: Hazard Ratio (95% CI)” value [1, 3] was 0.90 (0.73-1.12), the “First occurrence of the composite renal end point: Hazard Ratio (95% CI)” value [1, 3] was 0.71 (0.46-1.08) and the “Original coprimary end point, first occurrence of death from cardiovascular causes or hospitalization for heart failure: hazard ratio” value [1, 3] was 0.77. The “Original coprimary end point, first occurrence of death from cardiovascular causes, nonfatal myocardial infarction, or nonfatal stroke: hazard ratio” value [1, 3] was 0.84, the “Primary end point: Hazard Ratio (95% CI)” value [1, 3] was 0.74 (0.63-0.88) and the “Total no. of deaths from cardiovascular causes, hospitalizations for HF, nonfatal myocardial infarctions, and nonfatal strokes: Hazard Ratio (95% CI)” value [1, 3] was 0.72 (0.63-0.83). The “Total no. of deaths from cardiovascular causes, hospitalizations for HF, urgent visits for HF, and events of HF during hospitalization: Hazard Ratio (95% CI)” value [1, 3] was 0.76 (0.64-0.89), the “Total no. of deaths from cardiovascular causes, nonfatal myocardial infarctions, and nonfatal strokes: Hazard Ratio (95% CI)” value [1, 3] was 0.77 (0.65-0.91) and the “Total no. of hospitalizations for HF and urgent visits for HF: Hazard Ratio (95% CI)” value [1, 3] was 0.67 (0.55-0.82). The “Deaths from cardiovascular causes: Hazard Ratio (95% CI)” value [1, 4] was 0.90, the “Primary end point: Hazard Ratio (95% CI)” value [1, 4] was 0.74 and the “Total no. of hospitalizations for HF and urgent visits for HF: Hazard Ratio (95% CI)” value [1, 4] was 0.67. For the same compound, the “acute kidney injury, percentage of patients” value ([1]; human, in vivo) was 2.2%, the “diabetic ketoacidosis, percentage of patients” value ([1]; human, in vivo) was 0.6% and the “diarrhea, percentage of patients” value ([1]; human, in vivo) was 8.5%. The “genital mycotic infections, percentage of patients” value ([1]; human, in vivo) was 2.4%, the “percentage of patients in whom hypertension developed” value ([1]; human, in vivo) was 2.6% and the “percentage of patients in whom hypotension developed” value ([1]; human, in vivo) was 2.6%. For the same compound, the “percentage of patients with a serious adverse event” value ([1]; human, in vivo) was 23.4%, the “volume depletion, percentage of patients” value ([1]; human, in vivo) was 5.3% and the “Diarrhea, genital mycotic infections, volume depletion, and diabetic ketoacidosis, frequency compared with placebo” value ([1]; in vivo) was “more common”. The “bone fractures, urinary tract infections, severe hypoglycemia, acute kidney injury, or amputations, compared with placebo” value ([1]; in vivo) was “no significant between-group differences”, the “percentage of patients with adverse events that occurred or worsened during the treatment period or with events leading to withdrawal of the trial regimen, compared with placebo” value ([1]; in vivo) was “no significant differences” and the “effect on the SCORED study's primary endpoint in the presence or absence of reported LVH or hypertension at baseline” value ([2]; FIG. 1, in words) was “consistent”. The “Acute Kidney Injury, count” value ([2]; human, in vivo) was 6, the “Acute Kidney Injury, figure in brackets” value ([2]; human, in vivo) was 2.8 and the “Any Malignancies of Special Interest, count” value ([2]; human, in vivo) was 4. The “Any Malignancies of Special Interest, figure in brackets” value ([2]; human, in vivo) was 1.8, the “Bone Fractures, count” value ([2]; human, in vivo) was 7 and the “Bone Fractures, figure in brackets” value ([2]; human, in vivo) was 3.2. The “Diabetic Ketoacidosis, count” value ([2]; human, in vivo) was 1, the “Diabetic Ketoacidosis, figure in brackets” value ([2]; human, in vivo) was 0.5 and the “Diarrhea, count” value ([2]; human, in vivo) was 19. The “Diarrhea, figure in brackets” value ([2]; human, in vivo) was 8.8, the “Genital Mycotic Infections, count” value ([2]; human, in vivo) was 2 and the “Genital Mycotic Infections, figure in brackets” value ([2]; human, in vivo) was 0.9. For the same compound, the “Pancreatitis, count” value ([2]; human, in vivo) was 1, the “Pancreatitis, figure in brackets” value ([2]; human, in vivo) was 0.5 and the “Severe Hypoglycemia, count” value ([2]; human, in vivo) was 2. The “Severe Hypoglycemia, figure in brackets” value ([2]; human, in vivo) was 0.9, the “Urinary Tract Infections, count” value ([2]; human, in vivo) was 20 and the “Urinary Tract Infections, figure in brackets” value ([2]; human, in vivo) was 9.2. For the same compound, the “Venous Thrombotic Events, count” value ([2]; human, in vivo) was 3, the “Venous Thrombotic Events, figure in brackets” value ([2]; human, in vivo) was 1.4 and the “Volume Depletion, count” value ([2]; human, in vivo) was 10. For the same compound, the “Volume Depletion, figure in brackets” value ([2]; human, in vivo) was 4.6, the “hazard ratio in patients with LVH without hypertension compared with the general population of patients at risk of cardiovascular events” value ([2]; in words) was “markedly lower” and the “risk of CV events in patients with reported LVH and no reported hypertension” value ([2]; in words) was “significantly reduced”. For the same compound, the “3-point MACE + HHF, event rate” value [2, 5] was 5.5 Events per 100 patient-years, the “3-point MACE, event rate” value [2, 5] was 3.1 Events per 100 patient-years and the “3-point MACE + HHF: Hazard Ratio (95% CI)” value [2, 6] was 0.46 (0.21, 0.99). The “3-point MACE: Hazard Ratio (95% CI)” value [2, 6] was 0.52 (0.21, 1.28).

Reference: patent US20250114323A1, “METHODS OF REDUCING THE RISK OF CARDIOVASCULAR EVENTS IN PATIENTS WITH LEFT VENTRICULAR HYPERTROPHY” (LEXICON PHARMACEUTICALS, INC., priority 2023, published 2025)
